Results reported in ChEMBL document CHEMBL1139594, “Azinomycin inspired bisepoxides: influence of linker structure on in vitro cytotoxicity and DNA interstrand cross-linking” (2005).

Columns and labels:
Assay type in all cases: functional
[1] = Total growth inhibition of NCI panel of 60 human cancer cell lines
[2] = Mean cytotoxicity towards NCI panel of 60 human cancer cell lines; details: read-out: LC50 (the source's name)
[3] = Growth inhibitory concentration against NCI panel of 60 human cancer cell lines

SMILES	TGI [1] [nM]	CC50 [2] [nM]	GI50 [3] [nM]
COc1cc(C(=O)O[C@H](C(=O)NCCN(C)CCNC(=O)[C@@H](OC(=O)c2cc(OC)cc3c(C)cccc23)[C@]2(C)CO2)[C@]2(C)CO2)c2cccc(C)c2c1	350	14400	28
COc1cc(C(=O)O[C@H](C(=O)NCCNC(=O)[C@@H](OC(=O)c2cc(OC)cc3c(C)cccc23)[C@]2(C)CO2)[C@]2(C)CO2)c2cccc(C)c2c1	2400	62000	72
COc1cc(C(=O)O[C@H](C(=O)NCCCNC(=O)[C@@H](OC(=O)c2cc(OC)cc3c(C)cccc23)[C@]2(C)CO2)[C@]2(C)CO2)c2cccc(C)c2c1	210	3200	31
COc1cc(C(=O)O[C@H](C(=O)NCCCCNC(=O)[C@@H](OC(=O)c2cc(OC)cc3c(C)cccc23)[C@]2(C)CO2)[C@]2(C)CO2)c2cccc(C)c2c1	550	14800	53
COc1cc(C(=O)O[C@H](C(=O)NCCCCCNC(=O)[C@@H](OC(=O)c2cc(OC)cc3c(C)cccc23)[C@]2(C)CO2)[C@]2(C)CO2)c2cccc(C)c2c1	3400	50000	178
COc1cc(C(=O)O[C@H](C(N)=O)[C@]2(C)CO2)c2cccc(C)c2c1	2000	33000	214
